Assay results reported in PMC11277489, “Novel Piperazine Derivatives of Vindoline as Anticancer Agents” (International Journal of Molecular Sciences, 2024).
Read-outs that look alike come from different tables or passages of the source.

Experiments:
[1] = system: HL-60(TB); assay: NCI60 five-dose screen, Leukemia; format: cell-based; settings: Homo sapiens, HL-60
[2] = system: OVCAR-4; assay: NCI60 one-dose screen (10 μM), Ovarian Cancer; format: cell-based; settings: Homo sapiens, OVCAR-4, read-out: Growth percent rate
[3] = system: EKVX; assay: NCI60 one-dose screen (10 μM), Non-small Cell Lung Cancer; format: cell-based; settings: Homo sapiens, read-out: Growth percent rate
[4] = system: SW-620; assay: NCI60 five-dose screen, Colon Cancer; format: cell-based; settings: Homo sapiens, SW-620
[5] = system: MALME-3M; assay: NCI60 five-dose screen, Melanoma; format: cell-based; settings: Homo sapiens, Malme-3M
[6] = system: PC-3; assay: NCI60 one-dose screen (10 μM), Prostate Cancer; format: cell-based; settings: Homo sapiens, PC-3, read-out: Growth percent rate
[7] = system: UO-31; assay: NCI60 one-dose screen (10 μM), Renal Cancer; format: cell-based; settings: Homo sapiens, UO-31, read-out: Growth percent rate
[8] = system: NCI-H226; assay: NCI60 one-dose screen (10 μM), Non-small Cell Lung Cancer; format: cell-based; settings: Homo sapiens, NCI-H226, read-out: Growth percent rate
[9] = system: MCF7; assay: NCI60 five-dose screen, Breast Cancer; format: cell-based; settings: Homo sapiens, MCF7
[10] = system: NCI-H23; assay: NCI60 one-dose screen (10 μM), Non-small Cell Lung Cancer; format: cell-based; settings: Homo sapiens, NCI-H23, read-out: Growth percent rate
[11] = system: 60 human tumor cell lines (NCI60); assay: NCI60 five-dose screen, whole panel and sub-panel means; format: cell-based; settings: Homo sapiens
[12] = system: ACHN; assay: NCI60 five-dose screen, Renal Cancer; format: cell-based; settings: Homo sapiens
[13] = system: SR; assay: NCI60 one-dose screen (10 μM), Leukemia; format: cell-based; settings: Homo sapiens, read-out: Growth percent rate
[14] = system: NCI-H23; assay: NCI60 five-dose screen, Non-small Cell Lung Cancer; format: cell-based; settings: Homo sapiens, NCI-H23
[15] = system: UACC-62; assay: NCI60 one-dose screen (10 μM), Melanoma; format: cell-based; settings: Homo sapiens, UACC-62, read-out: Growth percent rate
[16] = system: NCI-H322M; assay: NCI60 five-dose screen, Non-small Cell Lung Cancer; format: cell-based; settings: Homo sapiens
[17] = system: SK-MEL-5; assay: NCI60 five-dose screen, Melanoma; format: cell-based; settings: Homo sapiens, SK-MEL-5
[18] = system: HOP-62; assay: NCI60 five-dose screen, Non-small Cell Lung Cancer; format: cell-based; settings: Homo sapiens, HOP-62
[19] = system: UACC-62; assay: NCI60 five-dose screen, Melanoma; format: cell-based; settings: Homo sapiens, UACC-62
[20] = system: MDA-MB-231/ATCC; assay: NCI60 one-dose screen (10 μM), Breast Cancer; format: cell-based, human; settings: Homo sapiens, MDA-MB-231, read-out: Growth percent rate
[21] = system: OVCAR-5; assay: NCI60 five-dose screen, Ovarian Cancer; format: cell-based; settings: Homo sapiens, OVCAR-5
[22] = system: UACC-257; assay: NCI60 five-dose screen, Melanoma; format: cell-based; settings: Homo sapiens, UACC-257
[23] = system: MDA-MB-435; assay: NCI60 one-dose screen (10 μM), Melanoma; format: cell-based; settings: Homo sapiens, MDA-MB-435, read-out: Growth percent rate
[24] = system: CCRF-CEM; assay: NCI60 five-dose screen, Leukemia; format: cell-based; settings: Homo sapiens
[25] = system: T-47D; assay: NCI60 one-dose screen (10 μM), Breast Cancer; format: cell-based; settings: Homo sapiens, T47D, read-out: Growth percent rate
[26] = system: OVCAR-4; assay: NCI60 five-dose screen, Ovarian Cancer; format: cell-based; settings: Homo sapiens, OVCAR-4
[27] = system: CAKI-1; assay: NCI60 five-dose screen, Renal Cancer; format: cell-based; settings: Homo sapiens, CAKI-1
[28] = system: MOLT-4; assay: NCI60 five-dose screen, Leukemia; format: cell-based; settings: Homo sapiens, MOLT-4
[29] = system: M14; assay: NCI60 five-dose screen, Melanoma; format: cell-based; settings: Homo sapiens, M14
[30] = system: HCC-2998; assay: NCI60 five-dose screen, Colon Cancer; format: cell-based; settings: Homo sapiens, HCC 2998
[31] = system: HOP-92; assay: NCI60 five-dose screen, Non-small Cell Lung Cancer; format: cell-based; settings: Homo sapiens, HOP-92
[32] = system: NCI/ADR-RES; assay: NCI60 one-dose screen (10 μM), Ovarian Cancer; format: cell-based; settings: Homo sapiens, read-out: Growth percent rate
[33] = system: HCC-2998; assay: NCI60 one-dose screen (10 μM), Colon Cancer; format: cell-based; settings: Homo sapiens, HCC 2998, read-out: Growth percent rate
[34] = system: A549/ATCC; assay: NCI60 five-dose screen, Non-small Cell Lung Cancer; format: cell-based; settings: Homo sapiens, A549
[35] = system: CAKI-1; assay: NCI60 one-dose screen (10 μM), Renal Cancer; format: cell-based; settings: Homo sapiens, CAKI-1, read-out: Growth percent rate
[36] = system: NCI/ADR-RES; assay: NCI60 five-dose screen, Ovarian Cancer; format: cell-based; settings: Homo sapiens
[37] = system: MDA-MB231ATCC; assay: NCI60 five-dose screen, Breast Cancer; format: cell-based; settings: Homo sapiens, MDA-MB-231
[38] = system: SK-OV-3; assay: NCI60 one-dose screen (10 μM), Ovarian Cancer; format: cell-based; settings: Homo sapiens, SK-OV-3, read-out: Growth percent rate
[39] = system: BT-549; assay: NCI60 one-dose screen (10 μM), Breast Cancer; format: cell-based; settings: Homo sapiens, BT-549, read-out: Growth percent rate
[40] = system: OVCAR-5; assay: NCI60 one-dose screen (10 μM), Ovarian Cancer; format: cell-based; settings: Homo sapiens, OVCAR-5, read-out: Growth percent rate
[41] = system: NCI-H460; assay: NCI60 five-dose screen, Non-small Cell Lung Cancer; format: cell-based; settings: Homo sapiens, NCI-H460

CC[C@]12C=CCN3CC[C@@]4(c5ccc(OC)cc5N(C)[C@H]4[C@@](O)(C(=O)OC)[C@@H]1OC(=O)CCCN1CCN(C(c4ccc(F)cc4)c4ccc(F)cc4)CC1)[C@@H]32 [Compound 25]
GI50 [1]: 1550 nM | activity at 10 µM [2]: -41.5% | activity at 10 µM [3]: -89.8% | GI50 [4]: 1620 nM | GI50 [5]: 1510 nM | activity at 10 µM [6]: -72.3% | activity at 10 µM [7]: -97.8% | activity at 10 µM [8]: -74.8% | GI50 [9]: 1700 nM | activity at 10 µM [10]: -92.7% | GI50 ([11]; 60 cell, read-out: GI50 Mean, mean over all 60 cell lines): 1850 nM | GI50 ([11]; on almost all cell lines, five-dose screen): < 2000 nM | GI50 ([11]; read-out: GI50 Mean, mean over Breast Cancer panel): 1670 nM | GI50 ([11]; read-out: GI50 Mean, mean over CNS Cancer panel): 2210 nM | GI50 ([11]; read-out: GI50 Mean, mean over Colon Cancer panel): 1730 nM | GI50 ([11]; read-out: GI50 Mean, mean over Leukemia panel): 1760 nM | GI50 ([11]; read-out: GI50 Mean, mean over Melanoma panel): 1780 nM | GI50 ([11]; read-out: GI50 Mean, mean over Non-small Cell Lung Cancer panel): 1850 nM | GI50 ([11]; read-out: GI50 Mean, mean over Ovarian Cancer panel): 1730 nM | GI50 ([11]; read-out: GI50 Mean, mean over Prostate Cancer panel): 1650 nM | GI50 ([11]; read-out: GI50 Mean, mean over Renal Cancer panel): 2180 nM | GI50 [12]: 2090 nM | activity at 10 µM [13]: -43.6% | GI50 [14]: 1910 nM | activity at 10 µM [15]: -92.5% | GI50 [16]: 1950 nM | GI50 [17]: 1550 nM | GI50 [18]: 1620 nM | GI50 [19]: 1780 nM | activity at 10 µM [20]: -94% | GI50 [21]: 1660 nM | GI50 [22]: 1740 nM | activity at 10 µM [23]: -78.7% | GI50 [24]: 2040 nM | activity at 10 µM [25]: -64.6% | GI50 [26]: 1950 nM | GI50 [27]: 1480 nM | GI50 [28]: 1450 nM | GI50 [29]: 1910 nM | GI50 [30]: 1660 nM | GI50 [31]: 1350 nM | activity at 10 µM [32]: -80.8% | activity at 10 µM [33]: -97.2% | GI50 [34]: 2630 nM | activity at 10 µM [35]: -86.2% | GI50 [36]: 1740 nM | GI50 [37]: 1580 nM | activity at 10 µM [38]: -72.5% | activity at 10 µM [39]: -92.4% | activity at 10 µM [40]: -92% | GI50 [41]: 1780 nM
